Laboratory results as given in ChEMBL document CHEMBL4651402, “Screening of ~5500 FDA-approved drugs and clinical candidates for anti-SARS-CoV-2 activity” (2021).
Bridge positions count the residues as written; N and C are the ends. Square brackets hold non-standard residues; d marks the D form. Peptide text beside a SMILES is read from it. * marks the point of attachment. Ileψ(thiazoline)Cys = CC[C@H](C)[C@H](N)C1=N[C@H](C(=O)*)CS1; dOrn = NCCC[C@@H](N)C(=O)O

Tested on: SARS-CoV-2
Test: microbe, parasite or virus in culture
Details: Severe acute respiratory syndrome coronavirus 2, Vero C1008, 48 h

Row | Structure (SMILES) | IC50 [µM] | IC50 (read-out: pIC50 (converted)) [µM]
1 | Cn1cc(-c2cc3c(N4CCN(c5ncc([C@@](C)(N)c6ccc(F)cc6)cn5)CC4)ncnn3c2)cn1 [AVAPRITINIB] | > 20 | > 20
2 | COc1ccc(C(=O)CC(=O)c2ccc(C(C)(C)C)cc2)cc1 [AVOBENZONE] | > 20 | > 20
3 | COc1ccccc1Oc1c(NS(=O)(=O)c2ccc(C)cn2)nc(-c2ccncc2)nc1OC [AVOSENTAN] | > 20 | > 20
4 | Nc1ncn([C@@H]2O[C@H](CO)[C@@H](O)[C@H]2O)c(=O)n1 [AZACITIDINE] | > 20 | > 20
5 | Clc1ccc(C2(Cn3cncn3)OCCO2)c(Cl)c1 [AZACONAZOLE] | > 20 | > 20
6 | OC(c1ccccc1)(c1ccccc1)C1CCNCC1 [AZACYCLONOL] | > 20 | > 20
7 | CN1CCC(=C2c3ccccc3Oc3ncccc32)CC1 [AZANATOR] | > 20 | > 20
8 | Cn1c([N+](=O)[O-])cnc1/C=C/c1ccnc(N)n1 [AZANIDAZOLE] | > 20 | > 20
9 | O=C(CCCN1CCN(c2ccccn2)CC1)c1ccc(F)cc1 [AZAPERONE] | > 20 | > 20
10 | C=CCN1Cc2ccccc2-c2ccccc2C1 [AZAPETINE] | > 20 | > 20
11 | CC(=O)OC[C@H]1O[C@@H](n2ncc(=O)[nH]c2=O)[C@H](OC(C)=O)[C@@H]1OC(C)=O [AZARIBINE] | > 20 | > 20
12 | CN1C(=O)COc2c(C(=O)NC3CN4CCC3CC4)cc(Cl)cc21 (stereo unspecified) [AZASETRON] | > 20 | > 20
13 | CN1CCC(=C2c3ccccc3CCc3cccnc32)CC1 [AZATADINE] | > 20 | > 20
14 | Cn1cnc([N+](=O)[O-])c1Sc1ncnc2[nH]cnc12 [AZATHIOPRINE] | > 20 | > 20
15 | c1cnc2c(c1)C[C@@]1(CN3CCC1CC3)O2 [AZD0328] | > 20 | > 20
16 | CC(=O)Nc1cccc2c1c(Sc1ccc(Cl)cc1)c(C)n2CC(=O)O [AZD1981] | > 20 | > 20
17 | Cc1[nH]nc(C(F)(F)F)c1Cc1sc2c(c1C(=O)N1C[C@](C)(O)CO1)c(=O)n(C)c(=O)n2C(C)C [AZD3965] | > 20 | > 20
18 | O=C(NCC12CC3CC(CC(C3)C1)C2)c1cc(CCCNCCCO)ccc1Cl [AZD9056] | > 20 | > 20
19 | Cc1cc(Nc2nc(N[C@@H](C)c3ncc(F)cn3)ncc2Cl)[nH]n1 [AZD-1480] | > 20 | > 20
20 | COc1ccc(-c2ccc3c(N4CCOC[C@@H]4C)nc(N4CCOC[C@@H]4C)nc3n2)cc1CO [AZD-8055] | > 20 | > 20

Row | Structure (SMILES) | IC50 [µM] | IC50 (read-out: pIC50 (converted)) [µM]
21 | O=C(O)CCCCCCCC(=O)O [AZELAIC ACID] | > 20 | > 20
22 | CCN1CCc2nc(N)oc2CC1 [AZEPEXOLE] | > 20 | > 20
23 | CCOc1nc2cccc(C(=O)O)c2n1Cc1ccc(-c2ccccc2-c2noc(=O)[nH]2)cc1 [AZILSARTAN] | > 20 | > 20
24 | CN1CCN(CCCCN2C(=O)CN(/N=C/c3ccc(-c4ccc(Cl)cc4)o3)C2=O)CC1 [AZIMILIDE] | > 20 | > 20
25 | CN1C(=N)N(c2ccccc2)CC1=O [AZOLIMINE] | > 20 | > 20
26 | NS(=O)(=O)c1cc(-c2nnn[nH]2)c(NCc2cccs2)cc1Cl [AZOSEMIDE] | > 20 | > 20
27 | C[C@H]1[C@H](NC(=O)/C(=N\OC(C)(C)C(=O)O)c2csc(N)n2)C(=O)N1S(=O)(=O)O [AZTREONAM] | > 20 | > 20
28 | O=C1CN(/N=C/c2ncc(-c3ccc(Br)cc3)o2)C(=O)N1 [AZUMOLENE] | > 20 | > 20
29 | CCOC(=O)OC(C)OC(=O)[C@@H]1N2C(=O)[C@@H](NC(=O)[C@H](N)c3ccccc3)[C@H]2SC1(C)C (stereo partly specified) [BACAMPICILLIN] | > 20 | > 20
30 | CC[C@H](C)[C@H](N)C1=N[C@H](C(=O)N[C@@H](CC(C)C)C(=O)N[C@H](CCC(=O)O)C(=O)N[C@H](C(=O)N[C@H]2CCCCNC(=O)[C@H](CC(N)=O)NC(=O)[C@@H](CC(=O)O)NC(=O)[C@H](Cc3cnc[nH]3)NC(=O)[C@@H](Cc3ccccc3)NC(=O)[C@H]([C@@H](C)CC)NC(=O)[C@@H](CCCN)NC2=O)[C@@H](C)CC)CS1 [BACITRACIN] ({Ileψ(thiazoline)Cys}-L[dE]IK[dOrn]I[dF]H[dD]N; lactam 4-C) | > 20 | > 20
31 | NCC(CC(=O)O)c1ccc(Cl)cc1 (stereo unspecified) [BACLOFEN] | > 20 | > 20
32 | O=C(O)[C@H]1O[C@@H](Oc2cc3oc(-c4ccccc4)cc(=O)c3c(O)c2O)[C@H](O)[C@@H](O)[C@@H]1O [BAICALIN] | > 20 | > 20
33 | CC(C)C(=O)OC[C@@]1(N=[N+]=[N-])O[C@@H](n2ccc(N)nc2=O)[C@H](OC(=O)C(C)C)[C@@H]1OC(=O)C(C)C [BALAPIRAVIR] | > 20 | > 20
34 | COC(=O)OCOc1c2n(ccc1=O)N([C@@H]1c3ccccc3SCc3c1ccc(F)c3F)[C@@H]1COCCN1C2=O [BALOXAVIR MARBOXIL] | > 20 | > 20
35 | CN(C)C(=O)Oc1cc(OC(=O)N(C)C)cc(C(O)CNC(C)(C)C)c1 (stereo unspecified) [BAMBUTEROL] | > 20 | > 20
36 | CCN(CCO)CCn1c(Cc2ccccc2)nc2c1c(=O)n(C)c(=O)n2C [BAMIFYLLINE] | > 20 | > 20
37 | Cc1ncc([N+](=O)[O-])n1CCOC(N)=O [BAMNIDAZOLE] | > 20 | > 20
38 | CCC1(CC)C(=O)NC(=O)NC1=O [BARBITAL] | > 20 | > 20
39 | COC(=O)[C@]12CCC(C)(C)C[C@H]1[C@H]1C(=O)C=C3[C@@]4(C)C=C(C#N)C(=O)C(C)(C)[C@@H]4CC[C@@]3(C)[C@]1(C)CC2 [BARDOXOLONE METHYL] | > 20 | > 20
40 | Cc1nc2ccccn2c(=O)c1CCN1CCC(Nc2nc3cccnc3n2Cc2ccco2)CC1 [BARMASTINE] | > 20 | > 20

Row | Structure (SMILES) | IC50 [µM] | IC50 (read-out: pIC50 (converted)) [µM]
41 | CCN(CC)CCNC(=O)c1cc(Cl)c(N)cc1OC(C)C(C)=O (stereo unspecified) [BATANOPRIDE] | > 20 | > 20
42 | CC(C)(C)c1ccc(OC(=O)[C@H]2CC[C@H](CNC(=N)N)CC2)cc1 [BATEBULAST] | > 20 | > 20
43 | O=C(CCCl)NCc1ccccc1 [BECLAMIDE] | > 20 | > 20
44 | C[C@H]1C[C@H]2[C@@H]3CCC4=CC(=O)C=C[C@]4(C)[C@@]3(Cl)[C@@H](O)C[C@]2(C)[C@@]1(O)C(=O)CO [BECLOMETHASONE] | > 20 | > 20
45 | COc1nc2ccc(Br)cc2cc1[C@@H](c1ccccc1)[C@@](O)(CCN(C)C)c1cccc2ccccc12 [BEDAQUILINE] | > 20 | > 20
46 | O=C(c1cc2ccccc2o1)N1CCN(Cc2ccccc2)CC1 [BEFURALINE] | > 20 | > 20
47 | CCCCCCCCCCCCCCCCCCCCCC(=O)O [BEHENIC ACID] | > 20 | > 20
48 | O=C(/C=C/c1cccc(S(=O)(=O)Nc2ccccc2)c1)NO [BELINOSTAT] | > 20 | > 20
49 | CCO[C@@H]1OC(=O)C[C@@H]1NC(=O)[C@@H]1CCCN1C(=O)[C@@H](NC(=O)c1ccc(N)c(Cl)c1)C(C)(C)C [BELNACASAN] | > 20 | > 20
50 | CC[C@@]1(O)C(=O)OCc2c1cc1n(c2=O)Cc2c-1nc1ccccc1c2CCNC(C)C [BELOTECAN] | > 20 | > 20
51 | CC(C)NC(=O)COc1cccc(-c2nc(Nc3ccc4[nH]ncc4c3)c3ccccc3n2)c1 [BELUMOSUDIL] | > 20 | > 20
52 | CCC1(C)CC(=O)NC(=O)C1 [BEMEGRIDE] | > 20 | > 20
53 | CN1[C@@H]2CC[C@H]1C[C@@H](OC(=O)c1cc(Cl)cc(Cl)c1)C2 [BEMESETRON] | > 20 | > 20
54 | CCN(CC)CCOC(=O)C(O)(c1ccccc1)c1ccccc1 [BENACTYZINE] | > 20 | > 20
55 | CCOC(=O)[C@H](CCc1ccccc1)N[C@H]1CCc2ccccc2N(CC(=O)O)C1=O [BENAZEPRIL] | > 20 | > 20
56 | CN(C)CCCOC1(Cc2ccccc2)CCCCCC1 [BENCYCLANE] | > 20 | > 20
57 | O=C(O)COc1nn(Cc2ccccc2)c2ccccc12 [BENDAZAC] | > 20 | > 20
58 | NS(=O)(=O)c1cc2c(cc1C(F)(F)F)NC(Cc1ccccc1)NS2(=O)=O (stereo unspecified) [BENDROFLUMETHIAZIDE] | > 20 | > 20
